Experiments:
Neutrophil = experiment: Antiinflammatory activity in human neutrophils assessed as inhibition of FMLP/CB-induced elastase release at 10 ug/mL; format: functional
Human alphaherpesvirus 1 = experiment: Antiviral activity against HSV1 KOS infected in african green monkey Vero cells assessed as inhibition of viral plaque formation in […] cells at 100 uM after 5 days by plaque reduction assay; format: functional; conditions: Human alphaherpesvirus 1, KOS, 120 h

SMILES	inhibition at 10 µg/mL (Neutrophil)	inhibition at 100 µM (Human alphaherpesvirus 1)
C[C@H]([C@H](O)[C@@H]1C[C@@H](C)C(=O)O1)[C@@H]1[C@H]2[C@]1(C)CC[C@@]13O[C@]2(O)C(=O)[C@@H]1CC[C@H]1C(C)(C)O[C@@H]2[C@@H](O)C(=O)O[C@@]21[C@H]3O	18.5%	–
C[C@H]1C(=O)[C@@]2(C)CC[C@]34C[C@]56OC(=O)C[C@@]5(O)OC(C)(C)[C@@H]6C[C@H](O)[C@H]3C(=O)[C@@]3(O[C@H]5[C@H](OC(=O)[C@]5(C)O)[C@@H]1[C@]32C)O4 [ARISANLACTONE B]	22.2%	25%
O=c1c(-c2ccc(O)cc2)coc2cc(O)cc(O)c12 [GENISTEIN]	51.6%	–
C[C@@H]1C(=O)O[C@H]2[C@@H]1O[C@]13O[C@@]4(CC[C@]5(C)C(=O)[C@H](C)[C@H]2[C@]15C)C[C@]12OC(=O)C[C@@]1(O)OC(C)(C)[C@@H]2C[C@H](O)[C@H]4C3=O [SCHINDILACTONE E]	–	30%
